Experimental data as given in patent publication US20230295182A1, “SPIRO DERIVATIVES OF ALPHA-D-GALACTOPYRANOSIDES” (Idorsia Pharmaceuticals Ltd, priority 2020, published 2023).

Tests used:
human Gal-3 (hGal-3) = human Gal-3 (hGal-3) (Homo sapiens (Human), UniProt P17931); test: Competitive binding assay: biotinylated hGal-3 to microplate-adsorbed asialofetuin (ASF); conditions: Activity on hGal-3; binding to ASF-coated plates, 3 hours at 4° C.; mean values
How it was run: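 Biotinylated hGal-3 (300-1000 ng/mL) binding to plate-adsorbed asialofetuin, with DMSO-diluted compound added, incubated 3 h at 4 °C. After washing, bound protein detected with streptavidin-peroxidase (80 ng/mL, 1 h, 4 °C) and ABTS substrate, read spectrophotometrically. IC50 given as mean of several measurements.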

human Gal-1 (hGal-1) = human Gal-1 (hGal-1) (Homo sapiens, UniProt P09382); test: Competitive binding assay: biotinylated hGal-1 to microplate-adsorbed asialofetuin (ASF); conditions: Activities on hGal-1; binding to ASF-coated plates, 3 hours at 4° C.; mean values; read-out: Gal-1 IC50
How it was run: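 Plate-adsorbed asialofetuin is incubated 3 h at 4 °C with biotinylated hGal-1, optionally its all-serine-substituted cysteine variant, plus compound dilutions. ABTS color after 1 h streptavidin-peroxidase (80 ng/mL) at 4 °C reports binding. Reported IC50 is a mean across repeat runs.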

human Gal-1 (hGal-1), sequence (P09382 2-135 limits assumed): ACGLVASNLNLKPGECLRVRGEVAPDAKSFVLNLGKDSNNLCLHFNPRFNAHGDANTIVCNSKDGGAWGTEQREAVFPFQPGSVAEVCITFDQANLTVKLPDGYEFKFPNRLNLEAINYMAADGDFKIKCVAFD
human Gal-3 (hGal-3), sequence (P17931 whole entry): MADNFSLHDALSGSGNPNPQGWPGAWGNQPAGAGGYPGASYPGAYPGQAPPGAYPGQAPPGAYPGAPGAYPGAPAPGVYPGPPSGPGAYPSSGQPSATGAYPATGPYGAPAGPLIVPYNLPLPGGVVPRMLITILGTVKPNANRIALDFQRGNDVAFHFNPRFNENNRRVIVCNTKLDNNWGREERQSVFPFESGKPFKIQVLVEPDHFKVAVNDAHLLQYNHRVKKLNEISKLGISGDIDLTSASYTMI

Compound | IC50 (human Gal-3 (hGal-3)) | IC50 (human Gal-1 (hGal-1))
CO[C@@H]1[C@@H](n2cc(-c3ccc(C)c(F)c3F)nn2)[C@@H](O)[C@@H](CO)O[C@@H]1CC1=NO[C@]2(CC[C@@H](C#N)CC2)C1 [Example 1.56, (5s,8S)-3-(((2R,3R,4S,5R,6R)-4-(4-(2,3-difluoro-4-methylphenyl)-1H-1,2,3-triazol-1-yl)-5-hydroxy-6-(hydroxymethyl)-3-methoxytetrahydro-2H-pyran-2-yl)methyl)-1-oxa-2-azaspiro[4.5]dec-2-ene-8-carbonitrile] | 120 nM | 3600 nM
CO[C@@H]1[C@@H](n2cc(-c3ccc(C)c(F)c3F)nn2)[C@@H](O)[C@@H](CO)O[C@@H]1CC1=NOC2(C1)CC1CCC(C1)C2 (stereo partly drawn) [Example 1.82, (2R,3R,4S,5R,6R)-6-((4′H-spiro[bicyclo[3.2.1]octane-3,5′-isoxazol]-3′-yl)methyl)-4-(4-(2,3-difluoro-4-methylphenyl)-1H-1,2,3-triazol-1-yl)-2-(hydroxymethyl)-5-methoxytetrahydro-2H-pyran-3-ol] | 50 nM | 1950 nM
Cc1ccc(-c2cn([C@H]3[C@@H](O)[C@@H](CO)O[C@H](CC4=NOC5(CCCCC5)C4)[C@@H]3OCC(=O)O)nn2)c(F)c1F [Example 2.25, 2-(((2R,3R,4S,5R,6R)-2-((1-oxa-2-azaspiro[4.5]dec-2-en-3-yl)methyl)-4-(4-(2,3-difluoro-4-methylphenyl)-1H-1,2,3-triazol-1-yl)-5-hydroxy-6-(hydroxymethyl)tetrahydro-2H-pyran-3-yl)oxy)acetic acid] | 37 nM | 3700 nM
CO[C@@H]1[C@@H](n2cc(-c3cc(F)c(F)c(F)c3)nn2)[C@@H](O)[C@@H](CO)O[C@@H]1CC1=NOC2(CCN(C(=O)NC(C)(C)C)CC2)C1 [Example 2.28, N-(tert-butyl)-3-(((2R,3R,4S,5R,6R)-5-hydroxy-6-(hydroxymethyl)-3-methoxy-4-(4-(3,4,5-trifluorophenyl)-1H-1,2,3-triazol-1-yl)tetrahydro-2H-pyran-2-yl)methyl)-1-oxa-2,8-diazaspiro[4.5]dec-2-ene-8-carboxamide] | 140 nM | 1700 nM
CO[C@@H]1[C@@H](n2cc(-c3ccc(C)c(F)c3F)nn2)[C@@H](O)[C@@H](CO)O[C@@H]1CC1=NOC2(CCOCC2)C1 [Example 1.36, (2R,3R,4S,5R,6R)-6-((1,8-dioxa-2-azaspiro[4.5]dec-2-en-3-yl)methyl)-4-(4-(2,3-difluoro-4-methylphenyl)-1H-1,2,3-triazol-1-yl)-2-(hydroxymethyl)-5-methoxytetrahydro-2H-pyran-3-ol] | 64 nM | 3800 nM
CO[C@@H]1[C@@H](n2cc(-c3cc(F)c(F)c(F)c3)nn2)[C@@H](O)[C@@H](CO)O[C@@H]1CC1=NO[C@]2(CC[C@H](C)CC2)C1 [Example 1.33, (2R,3R,4S,5R,6R)-2-(hydroxymethyl)-5-methoxy-6-(((5r,8R)-8-methyl-1-oxa-2-azaspiro[4.5]dec-2-en-3-yl)methyl)-4-(4-(3,4,5-trifluorophenyl)-1H-1,2,3-triazol-1-yl)tetrahydro-2H-pyran-3-ol] | 330 nM | 3700 nM
CO[C@@H]1[C@@H](n2cc(-c3cc(F)c(C)c(F)c3)nn2)[C@@H](O)[C@@H](CO)O[C@@H]1CC1=NOC2(CCCCC2)C1 [Example 1.21, (2R,3R,4S,5R,6R)-6-((1-oxa-2-azaspiro[4.5]dec-2-en-3-yl)methyl)-4-(4-(3,5-difluoro-4-methylphenyl)-1H-1,2,3-triazol-1-yl)-2-(hydroxymethyl)-5-methoxytetrahydro-2H-pyran-3-ol] | 110 nM | 11400 nM
CO[C@@H]1[C@@H](n2cc(-c3ccc(F)c(F)c3F)nn2)[C@@H](O)[C@@H](CO)O[C@@H]1CC1=NO[C@]2(CC[C@@H](NC(=O)OC(C)(C)C)CC2)C1 [Example 1.42, tert-butyl ((5s,8S)-3-(((2R,3R,4S,5R,6R)-5-hydroxy-6-(hydroxymethyl)-3-methoxy-4-(4-(2,3,4-trifluorophenyl)-1H-1,2,3-triazol-1-yl)tetrahydro-2H-pyran-2-yl)methyl)-1-oxa-2-azaspiro[4.5]dec-2-en-8-yl)carbamate] | 132 nM | 850 nM
CO[C@@H]1[C@@H](n2cc(-c3cc(F)c(F)c(F)c3)nn2)[C@@H](O)[C@@H](CO)O[C@@H]1CC1=NOC2(CCC(NC3CC3)CC2)C1 (stereo partly drawn) [Example 2.16, (2R,3R,4S,5R,6R)-6-((8-(cyclopropylamino)-1-oxa-2-azaspiro[4.5]dec-2-en-3-yl)methyl)-2-(hydroxymethyl)-5-methoxy-4-(4-(3,4,5-trifluorophenyl)-1H-1,2,3-triazol-1-yl)tetrahydro-2H-pyran-3-ol] | 240 nM | 2400 nM
CO[C@@H]1[C@@H](n2cc(-c3ccc(F)c(F)c3F)nn2)[C@@H](O)[C@@H](CO)O[C@@H]1CC1=NOC2(CCCCC2)C1 [Example 1.13, (2R,3R,4S,5R,6R)-6-((1-oxa-2-azaspiro[4.5]dec-2-en-3-yl)methyl)-2-(hydroxymethyl)-5-methoxy-4-(4-(2,3,4-trifluorophenyl)-1H-1,2,3-triazol-1-yl)tetrahydro-2H-pyran-3-ol] | 140 nM | 520 nM
CO[C@@H]1[C@@H](n2cc(-c3cc(F)c(F)c(F)c3)nn2)[C@@H](O)[C@@H](CO)O[C@@H]1CC1=NOC2(CCN(C(=O)OC(C)(C)C)CC2)C1 [Example 1.06, tert-butyl 3-(((2R,3R,4S,5R,6R)-5-hydroxy-6-(hydroxymethyl)-3-methoxy-4-(4-(3,4,5-trifluorophenyl)-1H-1,2,3-triazol-1-yl)tetrahydro-2H-pyran-2-yl)methyl)-1-oxa-2,8-diazaspiro[4.5]dec-2-ene-8-carboxylate] | 340 nM | 4200 nM
CO[C@@H]1[C@@H](n2cc(-c3ccc(C)c(F)c3F)nn2)[C@@H](O)[C@@H](CO)O[C@@H]1CN1CC2(CCCCC2)N=C1C [Example 4.03, (2R,3R,4S,5R,6R)-4-(4-(2,3-difluoro-4-methylphenyl)-1H-1,2,3-triazol-1-yl)-2-(hydroxymethyl)-5-methoxy-6-((2-methyl-1,3-diazaspiro[4.5]dec-1-en-3-yl)methyl)tetrahydro-2H-pyran-3-ol] | 74 nM | 1700 nM
CO[C@@H]1[C@@H](n2cc(-c3cc(F)c(F)c(F)c3)nn2)[C@@H](O)[C@@H](CO)O[C@@H]1CC1=NO[C@]2(CC[C@@H](C#N)CC2)C1 [Example 1.39, (5s,8S)-3-(((2R,3R,4S,5R,6R)-5-hydroxy-6-(hydroxymethyl)-3-methoxy-4-(4-(3,4,5-trifluorophenyl)-1H-1,2,3-triazol-1-yl)tetrahydro-2H-pyran-2-yl)methyl)-1-oxa-2-azaspiro[4.5]dec-2-ene-8-carbonitrile] | 260 nM | 7100 nM
CO[C@@H]1[C@@H](n2cc(-c3cc(F)c(F)c(F)c3)nn2)[C@@H](O)[C@@H](CO)O[C@@H]1CC1=NO[C@]2(CC[C@@H](NC(C)=O)CC2)C1 [Example 2.05, N-((5s,8S)-3-(((2R,3R,4S,5R,6R)-5-hydroxy-6-(hydroxymethyl)-3-methoxy-4-(4-(3,4,5-trifluorophenyl)-1H-1,2,3-triazol-1-yl)tetrahydro-2H-pyran-2-yl)methyl)-1-oxa-2-azaspiro[4.5]dec-2-en-8-yl)acetamide] | 450 nM | 3600 nM
CCO[C@@H]1[C@@H](n2cc(-c3cc(F)c(F)c(F)c3)nn2)[C@@H](O)[C@@H](CO)O[C@@H]1CC1=NOC2(CCCCC2)C1 [Example 1.69, (2R,3R,4S,5R,6R)-6-((1-oxa-2-azaspiro[4.5]dec-2-en-3-yl)methyl)-5-ethoxy-2-(hydroxymethyl)-4-(4-(3,4,5-trifluorophenyl)-1H-1,2,3-triazol-1-yl)tetrahydro-2H-pyran-3-ol] | 300 nM | 3100 nM
CO[C@@H]1[C@@H](n2cc(-c3ccc(F)c(F)c3F)nn2)[C@@H](O)[C@@H](CO)O[C@@H]1CC1=NO[C@]2(CC[C@H](NC(C)=O)CC2)C1 [Example 2.08, N-((5r,8R)-3-(((2R,3R,4S,5R,6R)-5-hydroxy-6-(hydroxymethyl)-3-methoxy-4-(4-(2,3,4-trifluorophenyl)-1H-1,2,3-triazol-1-yl)tetrahydro-2H-pyran-2-yl)methyl)-1-oxa-2-azaspiro[4.5]dec-2-en-8-yl)acetamide] | 52 nM | 310 nM
Cc1ccc(-c2cn([C@H]3[C@@H](O)[C@@H](CO)O[C@H](CC4=NOC5(CCOCC5)C4)[C@@H]3O)nn2)c(F)c1F [Example 1.02, (2R,3R,4R,5R,6R)-2-((1,8-dioxa-2-azaspiro[4.5]dec-2-en-3-yl)methyl)-4-(4-(2,3-difluoro-4-methylphenyl)-1H-1,2,3-triazol-1-yl)-6-(hydroxymethyl)tetrahydro-2H-pyran-3,5-diol] | 84 nM | 5200 nM
Cc1ccc(-c2cn([C@H]3[C@@H](O)[C@@H](CO)O[C@H](CC4=NOC5(CCC(F)(F)CC5)C4)[C@@H]3O)nn2)c(F)c1F [Example 1.04, (2R,3R,4R,5R,6R)-2-((8,8-difluoro-1-oxa-2-azaspiro[4.5]dec-2-en-3-yl)methyl)-4-(4-(2,3-difluoro-4-methylphenyl)-1H-1,2,3-triazol-1-yl)-6-(hydroxymethyl)tetrahydro-2H-pyran-3,5-diol] | 170 nM | 10400 nM
CO[C@@H]1[C@@H](n2cc(-c3ccc(C)c(F)c3F)nn2)[C@@H](O)[C@@H](CO)O[C@@H]1CC1=NOC2(CCCN(C(=O)OC(C)(C)C)CC2)C1 (mixture of isomers) [Example 1.75, tert-butyl (RS)-3-(((2R,3R,4S,5R,6R)-4-(4-(2,3-difluoro-4-methylphenyl)-1H-1,2,3-triazol-1-yl)-5-hydroxy-6-(hydroxymethyl)-3-methoxytetrahydro-2H-pyran-2-yl)methyl)-1-oxa-2,8-diazaspiro[4.6]undec-2-ene-8-carboxylate] | 160 nM | 8200 nM
